{"source": "patent US20230012368A1", "about": "(Hoffmann-La Roche Inc., priority 2018, published 2023)", "note": "Counter-ions that a name gives are not always drawn."}
{"test_system": "Acinetobacter baumannii ATCC 17978", "experiment": "Antimicrobial susceptibility testing: 90% growth inhibitory concentration (IC90) determination", "type": "cell-based", "settings": "90% growth inhibitory concentration; Acinetobacter baumannii ATCC17978; Iso-Sensitest broth, OD 600 nm over 16h; read-out: ATCC17978 IC90", "outline": "(§1)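 Growth of the Acinetobacter baumannii strain was followed by optical density at 600 nm every 20 minutes for 16h at 35±2° C. Inoculum was ~5×10^(5) CFU/ml in Iso-Sensitest medium, with twofold compound dilutions (e.g. 50 to 0.097 μM final). The 90% inhibitory concentration was derived in log-phase growth.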", "units": {"IC90": "nM"}}
{"smiles": "CCc1cc(Nc2nccn3c(-c4ccc(OC)c(F)c4F)cnc23)ccc1C(=O)NCCCCCCCN", "note": "[Example 517, N-(7-aminoheptyl)-4-((3-(2,3-difluoro-4-methoxyphenyl)imidazo[1,2-a]pyrazin-8-yl)amino)-2-ethylbenzamide hydrochloride]", "IC90": 67}
{"smiles": "COc1ccc(-c2cnc3c(Nc4ccc(C(=O)NCCC5CCN(C)CC5)c(C)c4)nccn23)cc1", "note": "[Example 195, 4-[[3-(4-methoxyphenyl)imidazo[1,2-a]pyrazin-8-yl]amino]-2-methyl-N-[2-(1-methylpiperidin-4-yl)ethyl]benzamide;hydrochlo-ride]", "IC90": 360}
{"smiles": "COc1ccc(-c2cnc3c(Nc4ccc(C(=O)N(C)CCN5CCN(CC(F)F)CC5)c(C)c4)nccn23)cc1F", "note": "[Example 113, N-[2-[4-(2,2-difluoroethyl)piperazin-1-yl]ethyl]-4-[[3-(3-fluoro-4-methoxy-phenyl)imidazo[1,2-a]pyrazin-8-yl]amino]-N,2-dimethyl-benzamide; formic acid]", "IC90": 2000}
{"smiles": "Cc1cc(Nc2nccn3c(-c4ccc(Cl)cc4)cnc23)ccc1C(=O)NCCCN", "note": "[Example 236, N-(3-aminopropyl)-4-[[3-(4-chlorophenyl)imidazo[1,2-a]pyrazin-8-yl]amino]-2-methylbenzamide; hydrochloride]", "IC90": 1400}
{"test_system": "Acinetobacter baumannii ATCC 17978", "experiment": "Antimicrobial susceptibility testing: 90% growth inhibitory concentration (IC90) determination", "type": "cell-based", "settings": "Acinetobacter baumannii, ATCC17978, 16 h, 90% growth inhibitory concentration; Acinetobacter baumannii ATCC17978; Iso-Sensitest broth, OD 600 nm over 16h; read-out: ATCC17978 IC90", "outline": "as §1", "units": {"IC90": "nM"}}
{"smiles": "COc1ccc(-c2cnc3c(Nc4ccc(C(=O)N[C@H](C)CNC(=N)C(C)C)c(Cl)c4)nccn23)c(F)c1F", "note": "[Example 509, (R)-2-chloro-4-((3-(2,3-difluoro-4-methoxyphenyl)imidazo[1,2-a]pyrazin-8-yl)amino)-N-(1-isobutyrimidamidopropan-2-yl)benzamide]", "IC90": 110}
{"smiles": "CCc1cc(Nc2nccn3c(-c4ccc(Oc5nccc(OC)n5)c(F)c4F)cnc23)ccc1C(=O)NCCN", "note": "[Example 466, N-(2-aminoethyl)-4-((3-(2,3-difluoro-4-((4-methoxypyrimidin-2-yl)oxy)phenyl)imidazo[1,2-a]pyrazin-8-yl)amino)-2-ethylbenzamide]", "IC90": 560}
{"smiles": "CNCCCN1CCc2cc(Nc3nccn4c(-c5ccc(OC)c(F)c5F)cnc34)ccc2C1=O", "note": "[Example 568, 6-[[3-(2,3-difluoro-4-methoxy-phenyl)imidazo[1,2-a]pyrazin-8-yl]amino]-2-[3-(methylamino)propyl]-3,4-dihydroisoquinolin-1-one]", "IC90": 390}
{"smiles": "CC[C@@]1(O)CN[C@H](C(=O)NCCNC(=O)c2ccc(Nc3nccn4c(-c5ccc(OCC#N)c(F)c5F)cnc34)cc2C)C1", "note": "[Example 366, (2S,4S)-N-[2-[[4-[[3-[4-(cyanomethoxy)-2,3-difluorophenyl]imidazo[1,2-a]pyrazin-8-yl]amino]-2-methylbenzoyl]amino]ethyl]-4-ethyl-4-hydroxypyrrolidine-2-carboxamide]", "IC90": 100}
{"smiles": "COc1ccc(-c2cnc3c(Nc4ccc(C(=O)NCCC5(O)CCNCC5)c(C)c4)nccn23)cc1F", "note": "[Example 281, 4-[[3-(3-fluoro-4-methoxyphenyl)imidazo[1,2-a]pyrazin-8-yl]amino]-N-[2-(4-hydroxypiperidin-4-yl)ethyl]-2-methylbenzamide;2,2,2-trifluoroacetic acid]", "IC90": 930}
{"smiles": "COc1ccc(-c2cnc3c(Nc4ccc(C(=O)NCC5CCNCC5)c(Cl)c4)nccn23)c(F)c1F", "note": "[Example 58, 2-chloro-4-[[3-(2,3-difluoro-4-methoxy-phenyl)imidazo[1,2-a]pyrazin-8-yl]amino]-N-(4-piperidylmethyl) benzamide]", "IC90": 170}
{"smiles": "CCc1cc(Nc2nccn3c(-c4ccc(OC)c(F)c4F)cnc23)ccc1C(=O)NCC1CN(C(=O)CN)C1", "note": "[Example 532, N-[[1-(2-aminoacetyl)azetidin-3-yl]methyl]-4-[[3-(2,3-difluoro-4-methoxy-phenyl)imidazo[1,2-a]pyrazin-8-yl]amino]-2-ethyl-benzamide; formic acid]", "IC90": 61}
{"smiles": "COc1ccc(-c2cnc3c(Nc4ccc(C(=O)N(C)CCO)c(C)c4)nccn23)cc1", "note": "[Example 19, N-(2-hydroxyethyl)-4-((3-(4-methoxyphenyl)imidazo [1,2-a]pyrazin-8-yl)amino)-N,2-dimethylbenzamide]", "IC90": 690}
{"smiles": "COc1ccc(-c2cnc3c(Nc4ccc(C(=O)N(C)CC(=O)N5CCOCC5)c(C)c4)nccn23)cc1F", "note": "[Example 8, 4-[[3-(3-fluoro-4-methoxy-phenyl)imidazo[1,2-a]pyrazin-8-yl]amino]-N,2-dimethyl-N-(2-morpholino-2-oxo-ethyl)benzamide]", "IC90": 2000}
{"smiles": "CCc1cc(Nc2nccn3c(-c4ccc(OC)c(F)c4F)cnc23)ccc1C(=O)NCC(O)CNC(=O)CCN", "note": "(stereo not drawn) [Example 146, N-[3-(3-aminopropanoyl-amino)-2-hydroxy-propyl]-4-[[3-(2,3-difluoro-4-methoxy-phenyl)imidazo[1,2-a]pyrazin-8-yl]amino]-2-ethyl-benzamide hydrochloride]", "IC90": 190}
{"smiles": "CCc1cc(Nc2nccn3c(-c4ccc(OC)c(F)c4F)cnc23)ccc1C(=O)NCCNC(=O)CCCCNC(=N)N", "note": "[Example 139, 4-[[3-(2,3-difluoro-4-methoxy-phenyl)imidazo[1,2-a]pyrazin-8-yl]amino]-2-ethyl-N-[2-(5-guanidino-pentanoylamino)ethyl]benzamide formate]", "IC90": 60}
{"smiles": "CCc1cc(Nc2nccn3c(-c4ccc(OC)c(F)c4F)cnc23)ccc1C(=O)NCC(O)CN1CCCC1", "note": "(stereo not drawn) [Example 304, 4-[[3-(2,3-difluoro-4-methoxyphenyl)imidazo[1,2-a]pyrazin-8-yl]amino]-2-ethyl-N-(2-hydroxy-3-pyrrolidin-1-ylpropyl)benzamide]", "IC90": 360}
{"smiles": "CCc1cc(Nc2nccn3c(-c4ccc(OC)c(F)c4F)cnc23)ccc1C(=O)NCC(O)CNC(=O)[C@@H](N)CCCCN", "note": "(mixture of isomers) [Example 412, rac-N-(3-((R)-2,6-diaminohexanamido)-2-hydroxypropyl)-4-((3-(2,3-difluoro-4-methoxyphenyl)imidazo[1,2-a]pyrazin-8-yl)amino)-2-ethylbenzamide dihydrochloride]", "IC90": 770}
{"smiles": "CCc1cc(Nc2nccn3c(-c4ccc(Oc5ccc(OC)cn5)c(F)c4F)cnc23)ccc1C(=O)NCCNC(=O)[C@H](N)CCNC(=N)N", "note": "[Example 450, N-[2-[[(2R)-2-amino-4-guanidino-butanoyl]amino]ethyl]-4-[[3-[2,3-difluoro-4-[(5-methoxy-2-pyridyl)oxy]phenyl]imidazo [1,2-a]pyrazin-8-yl]amino]-2-ethyl-benzamide]", "IC90": 560}
{"smiles": "CCc1cc(Nc2nccn3c(-c4ccc(OC)c(F)c4Cl)cnc23)ccc1C(=O)NCCNC(=O)[C@H](N)CCCNC(=N)N", "note": "[Example 129, N-[2-[[(2R)-2-amino-5-guanidino-pentanoyl]amino]ethyl]-4-[[3-(2-chloro-3-fluoro-4-methoxy-phenyl)imidazo[1,2-a]pyrazin-8-yl]amino]-2-ethyl-benzamide formate]", "IC90": 250}
{"smiles": "CCc1cc(Nc2nccn3c(-c4ccc(OC)c(F)c4F)cnc23)ccc1C(=O)N[C@H](C)CCN", "note": "[Example 303, N-[(2R)-4-aminobutan-2-yl]-4-[[3-(2,3-difluoro-4-methoxyphenyl)imidazo[1,2-a]pyrazin-8-yl]amino]-2-ethylbenzamide;hydrochloride]", "IC90": 360}
{"smiles": "Cn1cc(CNC(=O)c2ccc(Nc3nccn4c(-c5ccc(OCC#N)c(F)c5F)cnc34)cc2Cl)ccc1=O", "note": "[Example 87, 2-chloro-4-[[3-[4-(cyanomethoxy)-2,3-difluoro-phenyl]imidazo[1,2-a]pyrazin-8-yl]amino]-N-[(1-methyl-6-oxo-3-pyridyl)methyl] benzamide]", "IC90": 80}
{"smiles": "COc1ccc(-c2cnc3c(Nc4ccc(C(=O)NCCCN)c(C)c4)nccn23)c(F)c1F", "note": "[Example 64, N-(3-aminopropyl)-4-((3-(2,3-difluoro-4-methoxyphenyl)imidazo [1,2-a]pyrazin-8-yl)amino)-2-methylbenzamide]", "IC90": 230}
{"smiles": "COc1ccc(-c2cnc3c(Nc4ccc(C(=O)N(C)CCCC(=O)N5CCNCC5)c(C)c4)nccn23)cc1F", "note": "[Example 207, 4-[[3-(3-fluoro-4-methoxyphenyl)imidazo[1,2-a]pyrazin-8-yl]amino]-N,2-dimethyl-N-(4-oxo-4-piperazin-1-ylbutyl)benzamide;hydrochlo-ride]", "IC90": 560}
{"smiles": "COc1ccc(-c2cnc3c(Nc4ccc(C(=O)NCC5CCN(C)CC5)c(C)c4)nccn23)cc1", "note": "[Example 52, 4-[[3-(4-methoxyphenyl)imidazo [1,2-a]pyrazin-8-yl]amino]-2-methyl-N-[(1-methylpiperidin-4-yl)methyl]benzamide]", "IC90": 750}
{"smiles": "Cc1cc(Nc2nccn3c(-c4ccc(OC(F)F)cc4)cnc23)ccc1C(=O)N1CCC(C(=O)NC[C@H](O)[C@@H](O)[C@H](O)[C@H](O)CO)CC1", "note": "[Example 306, 1-[4-[[3-[4-(difluoromethoxy)phenyl]im-idazo[1,2-a]pyrazin-8-yl]amino]-2-methylbenzoyl]-N-[(2S,3R,4R,5R)-2,3,4,5,6-pentahydroxyhexyl]piperidine-4-carboxamide]", "IC90": 590}
{"smiles": "CCc1cc(Nc2nccn3c(-c4ccc(Oc5ccncn5)c(F)c4F)cnc23)ccc1C(=O)N[C@@H](C)CNC(=O)[C@H](N)CCNC(=N)N", "note": "[Example 458, N-[(1S)-2-[[(2R)-2-amino-4-guanidino-butanoyl]amino]-1-methyl-ethyl]-4-[[3-(2,3-difluoro-4-pyrimidin-4-yloxy-phenyl)imidazo[1,2-a]pyrazin-8-yl]amino]-2-ethyl-benzamide; formic acid]", "IC90": 660}
{"smiles": "Cc1cc(Nc2nccn3c(-c4ccc(OC(F)F)cc4)cnc23)ccc1C(=O)N(C)CCCN1CCNCC1", "note": "[Example 219, 4-[[3-[4-(difluoromethoxy)phenyl]im-idazo[1,2-a]pyrazin-8-yl]amino]-N,2-dimethyl-N-(3-piperazin-1-ylpropyl)benzamide;hydrochlo-ride]", "IC90": 1000}
